In EP3436445B1, “HISTONE DEMETHYLASE INHIBITORS” (Celgene Quanticel Research, Inc., priority 2016, dated 2017):

Assays:
[1] = target: T1, Jarid1B (Homo sapiens, UniProt Q9UGL1); assay: Jarid1B in vitro enzyme inhibition assay (TR-FRET); type: biochemical; conditions: Table 5; 0.8 nM Jarid1B, H3K4me3-biotin labeled peptide; read-out: JARID1B IC5
T1 construct: purchased BPS Bioscience (or custom made by MolecularThroughput) 50121
T1 sequence (Q9UGL1 2-751): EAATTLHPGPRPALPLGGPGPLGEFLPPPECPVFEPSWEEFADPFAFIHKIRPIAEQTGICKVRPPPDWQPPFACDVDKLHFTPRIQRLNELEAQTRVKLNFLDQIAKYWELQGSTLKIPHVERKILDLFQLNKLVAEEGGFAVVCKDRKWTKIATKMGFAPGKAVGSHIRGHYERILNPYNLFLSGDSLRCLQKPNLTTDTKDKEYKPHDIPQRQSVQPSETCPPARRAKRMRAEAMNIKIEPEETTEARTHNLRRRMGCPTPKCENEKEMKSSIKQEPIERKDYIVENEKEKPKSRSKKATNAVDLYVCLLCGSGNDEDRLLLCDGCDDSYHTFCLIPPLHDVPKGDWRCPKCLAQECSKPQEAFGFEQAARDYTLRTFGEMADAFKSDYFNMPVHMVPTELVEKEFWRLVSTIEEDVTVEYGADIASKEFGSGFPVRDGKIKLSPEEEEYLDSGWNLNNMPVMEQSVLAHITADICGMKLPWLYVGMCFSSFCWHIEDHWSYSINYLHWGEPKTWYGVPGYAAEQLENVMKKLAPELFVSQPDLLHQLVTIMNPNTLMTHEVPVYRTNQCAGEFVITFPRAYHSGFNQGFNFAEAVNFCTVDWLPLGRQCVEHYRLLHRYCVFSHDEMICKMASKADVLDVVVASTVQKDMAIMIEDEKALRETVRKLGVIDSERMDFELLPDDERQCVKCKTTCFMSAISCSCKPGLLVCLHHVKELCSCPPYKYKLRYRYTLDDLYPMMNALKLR
Source text: (§1) This assay determines the ability of a test compound to inhibit Jarid1B, JMJD2C and JMJD3 demethylase activity. Baculovirus expressed Jarid1B (GenBank Accession #NM-006618, AA 2-751) was purchased from BPS Bioscience (Cat #50121) or custom made by MolecularThroughput. Baculovirus expressed JMJD2C (GenBank Accession #BC143571, AA 2-372) was purchased from BPS Bioscience (Cat#50105). Baculovirus expressed JMJD3 (GenBank Accession #NM-001080424, AA1043-end) was purchased from BPS Bioscience (Cat#50115).
The ability of test compounds to inhibit the activity of Jarid1B was determined in 384-well plate format under the following reaction conditions: 0.8 nM Jarid1B, 300 nM H3K4me3-biotin labeled peptide (Anaspec cat #64357), 2 µM alpha-ketoglutaric acid in assay buffer of 50 mM HEPES, pH7.3, 0.005% Brij35, 0.5 mM TCEP, 0.2 mg/ml BSA, 50 µM sodium L-ascorbate, and 2 µM ammonium iron(II) sulfate. Reaction product was determined quantitatively by TR-FRET after the addition of detection reagent Phycolink Streptavidin-allophycocyanin (Prozyme) and Europium-anti-mono-or di-methylated histone H3 lysine 4 (H3K4me1-2) antibody (PerkinElmer) in the presence of 5 mM EDTA in LANCE detection buffer (PerkinElmer) at a final concentration of 25 nM and 1 nM, respectively.
(§2) The assay reaction was initiated by the following: 2 µl of the mixture of 900 nM H3K4me3-biotin labeled peptide and 6 µM alpha-ketoglutaric acid with 2 µl of 11-point serial diluted inhibitor in 3% DMSO was added to each well of the plate, followed by the addition of 2 µl of 2.4 nM Jarid1B to initiate the reaction. The reaction mixture was incubated at room temperature for 30 minutes, and terminated by the addition of 6 µl of 5 mM EDTA in LANCE detection buffer containing 50 nM Phycolink Streptavidin-allophycocyanin and 2 nM Europium-anti-H3K4me1-2 antibody. Plates were read by EnVisionMultilabel Reader in TR-FRET mode (excitation at 320 nm, emission at 615 nm and 665 nm) after 1 hour incubation at room temperature. A ratio was calculated (665/615) for each well and fitted to determine inhibition constant (IC50).

[2] = target: T2, JMJD2C (Homo sapiens, UniProt Q9H3R0); assay: JMJD2C in vitro enzyme inhibition assay (TR-FRET); type: biochemical; conditions: Table 5; 0.3 nM JMJD2C, H3K9me3-biotin labeled peptide
T2 construct: purchased BPS Bioscience 50105
T2 sequence (Q9H3R0 2-372): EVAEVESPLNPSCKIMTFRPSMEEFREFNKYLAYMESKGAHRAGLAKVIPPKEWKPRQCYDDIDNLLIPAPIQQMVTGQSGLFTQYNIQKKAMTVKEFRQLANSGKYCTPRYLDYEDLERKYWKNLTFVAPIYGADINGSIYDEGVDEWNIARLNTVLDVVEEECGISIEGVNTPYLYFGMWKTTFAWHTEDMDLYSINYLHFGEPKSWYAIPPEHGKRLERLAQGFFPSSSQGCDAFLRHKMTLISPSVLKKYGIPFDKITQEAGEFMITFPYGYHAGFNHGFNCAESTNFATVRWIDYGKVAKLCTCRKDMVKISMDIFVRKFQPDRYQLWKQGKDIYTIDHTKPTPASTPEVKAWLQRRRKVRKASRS
Source text: as §1
The ability of test compounds to inhibit the activity of JMJD2C was determined in 384-well plate format under the following reaction conditions: 0.3 nM JMJD2C, 300 nM H3K9me3-biotin labeled peptide (Anaspec cat #64360), 2 µM alpha-ketoglutaric acid in assay buffer of 50 mM HEPES, pH7.3, 0.005% Brij35, 0.5 mM TCEP, 0.2 mg/ml BSA, 50 µM sodium L-ascorbate, and 2 µM ammonium iron(II) sulfate. Reaction product was determined quantitatively by TR-FRET after the addition of detection reagent Phycolink Streptavidin-allophycocyanin (Prozyme) and Europium-anti-di-methylated histone H3 lysine 9 (H3K9me2) antibody (PerkinElmer) in the presence of 5 mM EDTA in LANCE detection buffer (PerkinElmer) at a final concentration of 50 nM and 1 nM, respectively.
as §2, with “nM H3K9me3-biotin” for “nM H3K4me3-biotin”, “DMSO were” for “DMSO was”, “of 0.9” for “of 2.4”, “nM JMJD2C” for “nM Jarid1B”, “containing 100” for “containing 50”, “nM Europium-anti-H3K9me2” for “nM Europium-anti-H3K4me1-2”

IC50 [1] [nM] | IC50 [2] [nM] | Structure (SMILES)
≤ 100 | > 10000 | Fc1ccc2c(c1)C(Cn1cnc(-c3cc(-c4nn[nH]c4C(F)(F)F)ccn3)c1)CCC2 (stereo not shown) [Example 101, 2-{1-[(7-fluoro-1,2,3,4-tetrahydronaphthalen-1-yl)methyl]-1H-imidazol-4-yl}-4-[5-(trifluoromethyl)-1H-1,2,3-triazol-4-yl]pyridine]
100 to 1000 | > 10000 | Cc1ccc2c(c1)CCCC2Cn1cnc(-c2cc(-c3nn[nH]c3C(F)(F)F)ccn2)c1 (stereo not shown) [Example 102, 2-{1-[(6-methyl-1,2,3,4-tetrahydronaphthalen-1-yl)methyl]-1H-imidazol-4-yl}-4-[5-(trifluoromethyl)-1H-1,2,3-triazol-4-yl]pyridine]
≤ 100 | > 10000 | Cc1ccc2c(c1)C(Cn1cnc(-c3cc(-c4nn[nH]c4C(F)(F)F)ccn3)c1)CCC2 (stereo not shown) [Example 103, 2-{1-[(7-methyl-1,2,3,4-tetrahydronaphthalen-1-yl)methyl]-1H-imidazol-4-yl}-4-[5-(trifluoromethyl)-1H-1,2,3-triazol-4-yl]pyridine]
100 to 1000 | > 10000 | COc1cccc2c1CCCC2Cn1cnc(-c2cc(-c3nn[nH]c3C(F)(F)F)ccn2)c1 (stereo not shown) [Example 104, 2-{1-[(5-methoxy-1,2,3,4-tetrahydronaphthalen-1-yl)methyl]-1H-imidazol-4-yl}-4-[5-(trifluoromethyl)-1H-1,2,3-triazol-4-yl]pyridine]
100 to 1000 | > 10000 | COc1ccc2c(c1)CCCC2Cn1cnc(-c2cc(-c3nn[nH]c3C(F)(F)F)ccn2)c1 (stereo not shown) [Example 105, 2-{1-[(6-methoxy-1,2,3,4-tetrahydronaphthalen-1-yl)methyl]-1H-imidazol-4-yl}-4-[5-(trifluoromethyl)-1H-1,2,3-triazol-4-yl]pyridine]
≤ 100 | > 10000 | COc1ccc2c(c1)C(Cn1cnc(-c3cc(-c4nn[nH]c4C(F)(F)F)ccn3)c1)CCC2 (stereo not shown) [Example 106, 2-{1-[(7-methoxy-1,2,3,4-tetrahydronaphthalen-1-yl)methyl]-1H-imidazol-4-yl}-4-[5-(trifluoromethyl)-1H-1,2,3-triazol-4-yl]pyridine]
100 to 1000 | > 10000 | COc1cccc2c1C(Cn1cnc(-c3cc(-c4nn[nH]c4C(F)(F)F)ccn3)c1)CCC2 (stereo not shown) [Example 107, 2-{1-[(8-methoxy-1,2,3,4-tetrahydronaphthalen-1-yl)methyl]-1H-imidazol-4-yl}-4-[5-(trifluoromethyl)-1H-1,2,3-triazol-4-yl]pyridine]

Further lines, the compound ahead of its results:

Structure (SMILES) | IC50 [1] [nM] | IC50 [2] [nM]
COc1ccc(CCn2cnc(-c3cc(-c4nn[nH]c4C(F)(F)F)ccn3)c2)cc1 [Example 93, 2-{1-[2-(4-methoxyphenyl)ethyl]-1H-imidazol-4-yl}-4-[5-(trifluoromethyl)-1H-1,2,3-triazol-4-yl]pyridine] | ≤ 100 | > 10000
FC(F)(F)c1ccc(CCn2cnc(-c3cc(-c4nn[nH]c4C(F)(F)F)ccn3)c2)cc1 [Example 94, 4-[5-(trifluoromethyl)-1H-1,2,3-triazol-4-yl]-2-(1-{2-[4-(trifluoromethyl)phenyl]ethyl}-1H-imidazol-4-yl)pyridine] | 100 to 1000 | > 10000
CCc1ccc(CCn2cnc(-c3cc(-c4nn[nH]c4C(F)(F)F)ccn3)c2)cc1 [Example 95, 2-{1-[2-(4-ethylphenyl)ethyl]-1H-imidazol-4-yl}-4-[5-(trifluoromethyl)-1H-1,2,3-triazol-4-yl]pyridine] | 100 to 1000 | > 10000
CC(C)(C)c1ccc(CCn2cnc(-c3cc(-c4nn[nH]c4C(F)(F)F)ccn3)c2)cc1 [Example 96, 2-{1-[2-(4-tert-butylphenyl)ethyl]-1H-imidazol-4-yl}-4-[5-(trifluoromethyl)-1H-1,2,3-triazol-4-yl]pyridine] | 100 to 1000 | > 10000
Cn1cnc(-c2cc(-c3nn[nH]c3C(F)(F)F)ccn2)c1-c1ccc(F)cc1 [Example 97, 2-[5-(4-fluorophenyl)-1-methyl-1H-imidazol-4-yl]-4-[5-(trifluoromethyl)-1H-1,2,3-triazol-4-yl]pyridine] | ≤ 100 | > 10000
FC(F)(F)c1[nH]nnc1-c1ccnc(-c2cn(CC3CCOc4ccccc43)cn2)c1 (stereo not shown) [Example 98, 2-{1-[(3,4-dihydro-2H-1-benzopyran-4-yl)methyl]-1H-imidazol-4-yl}-4-[5-(trifluoromethyl)-1H-1,2,3-triazol-4-yl]pyridine] | ≤ 100 | > 10000
Fc1ccc2c(c1)CCCC2Cn1cnc(-c2cc(-c3nn[nH]c3C(F)(F)F)ccn2)c1 (stereo not shown) [Example 100, 2-{1-[(6-fluoro-1,2,3,4-tetrahydronaphthalen-1-yl)methyl]-1H-imidazol-4-yl}-4-[5-(trifluoromethyl)-1H-1,2,3-triazol-4-yl]pyridine] | ≤ 100 | > 10000
